Experimental data from ChEMBL document CHEMBL1126165, “Preparation and evaluation of some hydrophilic phenylacetyl-piperazines as peripherally selective -opioid receptor agonists” (Bioorg Med Chem Lett, 1992).

How the values were obtained:
[1] = Lipophilicity was expressed as Log D; conditions: octanol/water
Mus musculus [2] = experiment: Tested in vivo for antinociceptive activity using the mouse acetylcholine induced abdominal constriction test by intracerebroventricular (i.c.v.) administration; assay type: functional; conditions: Abdomen, central
[3] = Ratio of antinociceptive activity measured using mouse acetylcholine induced abdominal constriction test by s.c. administration to that done by i.c.v.; assay type: functional, Abdomen
Mus musculus [4] = experiment: Tested in vivo for antinociceptive activity using the mouse acetylcholine induced abdominal constriction test by subcutaneous (s.c.) administration; assay type: functional; conditions: Abdomen, sc

| SMILES | logD [1] | ED50 (Mus musculus [2]) [mg/kg] | Ratio [3] | ED50 (Mus musculus [4]) [mg/kg] |
| --- | --- | --- | --- | --- |
| CC(=O)N1CCN(C(=O)Cc2cc(F)cc(F)c2)C(CN2CC[C@H](O)C2)C1 (some centres not stated) | 0.3 | 0.006 | 417 | 2.5 |
| COc1ccc(CC(=O)N2CCN(C(C)=O)CC2CN2CC[C@H](O)C2)cc1 (some centres not stated) | -0.1 |  |  |  |
| CC(=O)N1CCN(C(=O)Cc2cccc([N+](=O)[O-])c2)C(CN2CC[C@H](O)C2)C1 (some centres not stated) |  | 0.006 |  | 0.74 |
| CC(=O)N1CCN(C(=O)Cc2ccccc2)C(CN2CC[C@H](O)C2)C1 (some centres not stated) | -0.1 |  |  |  |
| CC(=O)N1CCN(C(=O)Cc2ccc(C(F)(F)F)cc2)C(CN2CC[C@H](O)C2)C1 (some centres not stated) | 1 | 0.008 | 95 | 0.76 |
| CC(=O)N1CCN(C(=O)Cc2ccc([S+](C)[O-])cc2)C(CN2CC[C@H](O)C2)C1 (some centres not stated) | < -0.5 |  |  |  |
| COc1cccc(CC(=O)N2CCN(C(C)=O)CC2CN2CC[C@H](O)C2)c1 (some centres not stated) | 0 |  |  |  |
| CC(=O)N1CCN(C(=O)Cc2ccc([N+](=O)[O-])cc2)C(CN2CC[C@H](O)C2)C1 (some centres not stated) | 0 | 0.024 | 200 | 4.8 |
| CSc1ccc(CC(=O)N2CCN(C(C)=O)CC2CN2CC[C@H](O)C2)cc1 (some centres not stated) | 0.6 | 0.075 | 20 | 1.52 |
| COC(=O)N1CCN(C(=O)Cc2ccc(Cl)c(Cl)c2)[C@H](CN2CCCC2)C1 | 3.1 | 0.0002 | 1.5 | 0.0003 |
| CC(=O)N1CCN(C(=O)Cc2ccc(S(C)(=O)=O)cc2)C(CN2CC[C@H](O)C2)C1 (some centres not stated) | < -0.5 | 0.0008 | 2762 | 2.21 |
| CC(=O)N1CCN(C(=O)Cc2ccc(Cl)c(Cl)c2)C(CN2CC[C@H](O)C2)C1 (some centres not stated) | 1.2 | 0.007 | 100 | 0.7 |
| CN(C(=O)Cc1ccc(Cl)c(Cl)c1)C(CN1CCCC1)c1cccc(OCC(=O)O)c1 (configuration not stated) [ICI-204448] | 0.3 | 0.13 |  | 4.4 |
